The experiment relates to γ-secretase; production of amyloid beta protein Aβ(1-42). Briefly: Cell-Based γ-Secretase Assay with ELISA Readout. Conditions: human WT-APP overexpressing CHO cells; geometric mean of 2-4 determinations unless otherwise indicated (footnote 10: 6-8; footnote 14: single determination); read-out: Aβ 42B IC50. As for the experimental part: The ability of compounds to modulate production of amyloid beta protein A6(1-42) was determined using human WT-APP overexpressing CHO cells. Cells were plated at 22,000 cells/100 μL well in 96 well tissue culture treated, clear plates (Falcon) in DMEM/F12 based medium and incubated for 24 hours at 37° C. Compounds for testing were diluted in 100% DMSO to achieve an eleven points, half log, dose response for IC50 determinations. Compounds were added in fresh medium to achieve 1% final DMSO. Appropriate vehicle and inhibitor controls were added to obtain maximum and minimum inhibition values for the assay before the plates were incubated for about 24 hours at 37° C.
Coating of ELISA assay plates was initiated by addition of 50 μL/well of an in-house Aβ(1-42) specific antibody at (4 μg/mL) in 0.1 M NaHCO3 (pH 9.0) into black 384-well Maxisorp® plates (Nunc) and incubated overnight at 4° C. The capture antibody was then aspirated from the ELISA assay plates and 100 μL/well of Blocking Buffer (Dulbecco's PBS, 1.5% BSA (Sigma A7030)) added. Ambient temperature incubation was allowed to proceed for a minimum of two hours before washing 2×100 μL with Wash Buffer (Dulbecco's PBS, 0.05% Tween 20). Assay Buffer (Dulbecco's PBS, 1.0% BSA (Sigma A7030), 0.05% Tween 20) 20 μL/well was then added.
After incubation overnight at 37° C., 5% CO2, 40 μL (in duplicate) of experimental conditioned media were transferred into wells of the blocked ELISA plates containing the capture antibody, followed by overnight incubation at 4° C.
After overnight incubation of the ELISA assay plates at 4° C., unbound Aβ peptides were removed thorough (4×100 μL) washes with Wash Buffer. Europium (Eu) labeled (custom labeled, Perkin Elmer) Aβ(1-16) 6e10 Monoclonal Antibody (Covance #SIG-39320 was added, (50 μL/well Eu-6e10 @ 1:5000, 20 uM EDTA) in Assay Buffer. Incubation at ambient temperature for a minimum of 2 hours was followed by (4×100 μL) washes with Wash Buffer, before 50 μL/well of Delfia Enhancement Solution (PerkinElmer) was added. Following a one hour ambient temperature incubation, the plates were read on an EnVision plate reader (PerkinElmer) using standard DELFIA TRF settings. Data analysis including inhibitory IC50 determination was performed using nonlinear regression fit analysis (in-house software) and the appropriate plate mean values for the maximum and minimum inhibition controls.
(In an ELISA, binding on a coated surface is turned into a signal by an enzyme label.)

Molecules are shown by their SMILES. Structures can show the parent of a compound that is named as a salt.

A word on the IC50: it is the concentration that gives 50% inhibition.

Consider `O=C(O)C[C@@H]1CC[C@@H](N(CC2CCCC2)CC2CCCC2)[C@H](c2cccc(Cl)c2)O1` [Example 47, [(2S,5R,6S)-5-[bis(cyclopentylmethyl)amino]-6-(3-chlorophenyl)tetrahydro-2H-pyran-2-yl]acetic acid, ammonium salt], for which the IC50 came out at 1840 nM.

As to `O=C(O)C[C@@H]1CC[C@@H](N(CCC(F)(F)F)CC2CCCC2)[C@H](c2ccc(Cl)cc2)C1` [Example 48, {(1R,3S,4R)-3-(4-chlorophenyl)-4-[(cyclopentylmethyl)(3,3,3-trifluoropropyl)amino]cyclohexyl}acetic acid, trifluoroacetate salt], the IC50 was determined as 441 nM.

For the compound `CCC(CC)CN(CC1CCCC1)[C@@H]1CC[C@@H](CC(=O)O)C[C@H]1c1ccc(Cl)cc1` [Example 49, {(1R,3S,4R)-3-(4-chlorophenyl)-4-[(cyclopentylmethyl)(2-ethylbutyl)amino]cyclohexyl} acetic acid, ammonium salt], the IC50 was 477 nM.

With `O=C(O)C[C@@H]1CC[C@@H](N(CC2CCCC2)CC2CCC2)[C@H](c2ccc(C(F)(F)F)cc2)C1` [Example 50, {(1R,3S,4R)-4-[(cyclobutylmethyl) (cyclopentyl)methyl)amino]-3-[4-(trifluoromethyl)phenyl] cyclohexyl}acetic acid, ammonium salt], the half-maximal inhibitory concentration (IC50) was 463 nM.

Regarding `CC(CN(CC1CCCC1)[C@@H]1CC[C@@H](CC(=O)O)C[C@H]1c1ccc(Cl)cc1)C(F)(F)F` (stereo partly drawn) [Example 51, {(1R,3S,4R)-3-(4-chlorophenyl)-4-[(cyclopentylmethyl)(3,3,3-trifluoro-2-methylpropyl)amino]cyclohexyl}acetic acid, trifluoroacetate salt], the half-maximal inhibitory concentration (IC50) worked out at 382 nM.

Regarding `CC(C)CN(CC1(F)CCCCC1)[C@@H]1CC[C@@H](CC(=O)O)C[C@H]1c1ccc(C(F)(F)F)cc1` [Example 52, {(1R,3S,4R)-4-{[(1-fluorocyclohexyl)methyl] (isobutyl)amino}-3-[4-(trifluoromethyl)phenyl]cyclohexyl}acetic acid, trifluoroacetate salt], the IC50 was determined as 190 nM.

For the compound `Cc1nc(CN(CC2CCCC2)[C@@H]2CC[C@@H](CC(=O)O)C[C@H]2c2ccc(C(F)(F)F)cc2)co1` [Example 53, {(1R,3S,4R)-4-{(cyclopentylmethyl)[(2-methyl-1,3-oxazol-4-yl)methyl]amino}-3-[4-(trifluoromethyl)phenyl]cyclohexyl}acetic acid, ammonium salt], the IC50 came out at 959 nM.

Consider `O=C(O)C[C@@H]1CC[C@@H](N(CC2CCCC2)CC2CCCC2)[C@H](c2ccc(Cl)c(F)c2)O1` [Example 54, [(2S,5R,6S)-5-[bis(cyclopentylmethyl)amino]-6-(4-chloro-3-fluorophenyl)tetrahydro-2H-pyran-2-yl]acetic acid, ammonium acid], for which the half-maximal inhibitory concentration (IC50) came out at 1050 nM.

With `O=C(O)C[C@@H]1CC[C@@H](N(CC2CCCC2)CC2CCCC2)[C@H](c2ccc(Cl)cc2)O1` [Example 55, [(2S,5R,6S)-5-[bis(cyclopentylmethyl)amino]-6-(4-chlorophenyl)tetrahydro-2H-pyran-2-yl]acetic acid], the IC50 came out at 892 nM.

`CCOc1ccc(CN(CC(C)C)[C@@H]2CC[C@@H](CC(=O)O)C[C@H]2c2ccc(C(F)(F)F)cc2)cc1` [Example 57, {(1R,3S,4R)-4-[(4-ethoxybenzyl)(isobutyl)amino]-3-[4-(trifluoromethyl)phenyl]cyclohexyl}acetic acid, trifluoroacetate salt]: the concentration for half-maximal inhibition (IC50) came to 171 nM.

`COc1cccc(F)c1CN(CC1(F)CCCCC1)[C@@H]1CC[C@@H](CC(=O)O)C[C@H]1c1ccc(C(F)(F)F)cc1` [Example 58, {(1R,3S,4R)-4-{[(1-fluorocyclohexyl)methyl](2-fluoro-6-methoxybenzyl)amino}-3-[4-(trifluoromethyl)phenyl]cyclohexyl}acetic acid, trifluoroacetate salt]: the IC50 amounted to 309 nM.

On to `CCCc1nscc1CN(CC(C)C)[C@@H]1CC[C@@H](CC(=O)O)C[C@H]1c1ccc(C(F)(F)F)cc1` [Example 59, {(1R,3S,4R)-4-{isobutyl[(3-propylisothiazol-4-yl)methyl]amino}-3-[4-(trifluoromethyl)phenyl]cyclohexyl}acetic acid, trifluoroacetate salt], for which the IC50 amounted to 349 nM.

On to `CC(C)CN(CC1=CCCCC1)[C@@H]1CC[C@@H](CC(=O)O)C[C@H]1c1ccc(C(F)(F)F)cc1` [Example 60, {(1R,3S,4R)-4-[(cyclohex-1-en-1-ylmethyl)(isobutyl)amino]-3-[4-(trifluoromethyl)phenyl]cyclohexyl}acetic acid, trifluoroacetate salt], for which the IC50 was found to be 154 nM.

In the case of `O=C(O)C[C@@H]1CC[C@@H](N(Cc2ccc3c(c2)CCO3)CC2(F)CCCCC2)[C@H](c2ccc(C(F)(F)F)cc2)C1` [Example 61, {(1R,3S,4R)-4-{(2,3-dihydro-1-benzofuran-5-ylmethyl)[(1-fluorocyclohexyl)methyl]amino}-3-[4-(trifluoromethyl)phenyl]cyclohexyl}acetic acid, trifluoroacetate salt], the IC50 came out at 607 nM.

Take `O=C(O)C[C@@H]1CC[C@@H](N(CC2=Cc3ccccc3OC2)CC2(F)CCCCC2)[C@H](c2ccc(C(F)(F)F)cc2)C1` [Example 62, {(1R,3S,4R)-4-{(2H-chromen-3-ylmethyl)[(1-fluorocyclohexyl)methyl]amino}-3-[4-(trifluoromethyl)phenyl]cyclohexyl}acetic acid, trifluoroacetate salt]: the IC50 turned out to be 223 nM.

Turning to `CC(C)CN(CC1=CCC2CC1C2(C)C)[C@@H]1CC[C@@H](CC(=O)O)C[C@H]1c1ccc(C(F)(F)F)cc1` (stereo partly drawn) [Example 63, {(1R,3S,4R)-4-{[(6,6-dimethylbicyclo[3.1.1]hept-2-en-2-yl)methyl](isobutyl)amino}-3-[4-(trifluoromethyl)phenyl]cyclohexyl}acetic acid, trifluoroacetate salt], the IC50 was 336 nM.

Regarding `CCc1csc(CN(CC2(F)CCCCC2)[C@@H]2CC[C@@H](CC(=O)O)C[C@H]2c2ccc(C(F)(F)F)cc2)n1` [Example 64, {(1R,3S,4R)-4-{[(4-ethyl-1,3-thiazol-2-yl)methyl][(1-fluorocyclohexyl)methyl]amino}-3-[4-(trifluoromethyl)phenyl]cyclohexyl}acetic acid, trifluoroacetate salt], the IC50 turned out to be 840 nM.

Take `O=C(O)C[C@@H]1CC[C@@H](N(Cc2ccc3nonc3c2)CC2(F)CCCCC2)[C@H](c2ccc(C(F)(F)F)cc2)C1` [Example 65, {(1R,3S,4R)-4-{(2,1,3-benzoxadiazol-5-ylmethyl)[(1-fluorocyclohexyl)methyl]amino}-3-[4-(trifluoromethyl)phenyl]cyclohexyl}acetic acid, trifluoroacetate salt]: the concentration for half-maximal inhibition (IC50) stood at 509 nM.

With `CC(C)CN(Cc1ccc(C(C)(C)C)cc1)[C@@H]1CC[C@@H](CC(=O)O)C[C@H]1c1ccc(C(F)(F)F)cc1` [Example 66, {(1R,3S,4R)-4-[(4-tert-butylbenzyl)(isobutyl)amino]-3-[4-(trifluoromethyl)phenyl]cyclohexyl}acetic acid, trifluoroacetate salt], the IC50 came out at 268 nM.

With `Cc1cc(CN(CC(C)C)[C@@H]2CC[C@@H](CC(=O)O)C[C@H]2c2ccc(C(F)(F)F)cc2)oc1C` [Example 67, {(1R,3S,4R)-4-{[(4,5-dimethyl-2-furyl)methyl](isobutyl)amino}-3-[4-(trifluoromethyl)phenyl]cyclohexyl}acetic acid, trifluoroacetate salt], the IC50 is 411 nM.
